# Values of other authors as cited in patent US20230104358A1 (priority 2021, published 2023).
# Legend:
# [1] = biological target: T1, serotonin 5HT1A receptor (Homo sapiens, UniProt P08908)
# T1 sequence (P08908 1-422): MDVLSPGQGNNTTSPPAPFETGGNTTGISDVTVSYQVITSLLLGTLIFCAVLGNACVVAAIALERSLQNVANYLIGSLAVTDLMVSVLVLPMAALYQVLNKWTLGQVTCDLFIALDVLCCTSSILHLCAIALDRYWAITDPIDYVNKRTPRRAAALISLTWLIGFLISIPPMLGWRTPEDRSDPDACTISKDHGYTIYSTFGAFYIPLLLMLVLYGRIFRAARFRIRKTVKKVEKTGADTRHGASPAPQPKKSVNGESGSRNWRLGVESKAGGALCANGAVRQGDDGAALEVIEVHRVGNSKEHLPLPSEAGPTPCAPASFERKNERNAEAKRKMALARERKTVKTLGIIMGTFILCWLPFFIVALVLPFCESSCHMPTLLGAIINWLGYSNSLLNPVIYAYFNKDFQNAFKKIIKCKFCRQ
# [2] = tested on: α1 adrenergic receptor
# [3] = biological target: β2 adrenergic receptor (Homo sapiens, UniProt P07550)
# [4] = biological target: T2, serotonin 5HT1C receptor (Homo sapiens, UniProt P28335)
# T2 sequence (P28335 33-458): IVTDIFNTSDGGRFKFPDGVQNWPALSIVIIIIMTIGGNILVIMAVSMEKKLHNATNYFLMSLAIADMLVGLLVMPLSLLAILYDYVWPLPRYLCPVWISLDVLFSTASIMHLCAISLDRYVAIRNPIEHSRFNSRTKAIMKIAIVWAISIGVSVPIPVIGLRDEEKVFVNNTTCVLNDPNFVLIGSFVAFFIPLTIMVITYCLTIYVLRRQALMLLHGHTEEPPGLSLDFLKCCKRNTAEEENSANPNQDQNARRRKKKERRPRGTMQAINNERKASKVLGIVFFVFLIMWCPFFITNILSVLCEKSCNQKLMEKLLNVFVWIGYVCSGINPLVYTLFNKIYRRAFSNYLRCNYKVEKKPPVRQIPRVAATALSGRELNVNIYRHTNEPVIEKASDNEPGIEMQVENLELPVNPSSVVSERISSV
# [5] = tested on: haloperidol-sensitive sigma site
# [6] = biological target: dopamine D1 (Homo sapiens, UniProt P21728)
# [7] = tested on: α2 adrenergic receptor
# [8] = biological target: serotonin 5HT1D receptor (Homo sapiens, UniProt P28221)
# [9] = biological target: dopamine Type 2 (D2) receptor (Homo sapiens, UniProt P14416)
# [10] = biological target: β1 adrenergic receptor (Homo sapiens, UniProt P08588)
# Chain of β1 adrenergic receptor (P08588 whole entry): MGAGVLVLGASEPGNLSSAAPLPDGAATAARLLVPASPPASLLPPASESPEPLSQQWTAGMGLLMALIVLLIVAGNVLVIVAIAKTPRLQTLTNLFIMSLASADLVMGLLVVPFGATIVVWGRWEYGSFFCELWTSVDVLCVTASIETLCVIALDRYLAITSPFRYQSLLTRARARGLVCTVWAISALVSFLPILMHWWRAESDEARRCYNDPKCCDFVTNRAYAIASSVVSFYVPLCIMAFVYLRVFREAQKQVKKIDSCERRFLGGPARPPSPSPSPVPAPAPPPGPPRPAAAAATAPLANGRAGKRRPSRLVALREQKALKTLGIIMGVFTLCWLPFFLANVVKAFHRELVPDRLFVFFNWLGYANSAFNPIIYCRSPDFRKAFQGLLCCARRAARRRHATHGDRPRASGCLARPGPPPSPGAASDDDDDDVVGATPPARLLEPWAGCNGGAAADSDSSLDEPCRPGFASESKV
# Chain of β2 adrenergic receptor (P07550 whole entry): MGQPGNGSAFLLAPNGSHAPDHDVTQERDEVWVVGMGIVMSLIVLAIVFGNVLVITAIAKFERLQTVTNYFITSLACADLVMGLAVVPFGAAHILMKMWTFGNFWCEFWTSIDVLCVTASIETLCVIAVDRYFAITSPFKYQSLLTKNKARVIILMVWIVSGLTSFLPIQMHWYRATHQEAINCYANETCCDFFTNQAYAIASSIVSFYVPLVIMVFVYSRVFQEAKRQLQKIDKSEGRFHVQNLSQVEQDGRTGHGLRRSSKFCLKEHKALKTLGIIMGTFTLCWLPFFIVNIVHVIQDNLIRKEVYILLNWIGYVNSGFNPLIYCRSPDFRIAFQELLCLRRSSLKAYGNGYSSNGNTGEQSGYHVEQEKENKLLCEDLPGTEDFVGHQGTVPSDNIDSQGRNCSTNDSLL
# Chain of dopamine Type 2 (D2) receptor (P14416 whole entry): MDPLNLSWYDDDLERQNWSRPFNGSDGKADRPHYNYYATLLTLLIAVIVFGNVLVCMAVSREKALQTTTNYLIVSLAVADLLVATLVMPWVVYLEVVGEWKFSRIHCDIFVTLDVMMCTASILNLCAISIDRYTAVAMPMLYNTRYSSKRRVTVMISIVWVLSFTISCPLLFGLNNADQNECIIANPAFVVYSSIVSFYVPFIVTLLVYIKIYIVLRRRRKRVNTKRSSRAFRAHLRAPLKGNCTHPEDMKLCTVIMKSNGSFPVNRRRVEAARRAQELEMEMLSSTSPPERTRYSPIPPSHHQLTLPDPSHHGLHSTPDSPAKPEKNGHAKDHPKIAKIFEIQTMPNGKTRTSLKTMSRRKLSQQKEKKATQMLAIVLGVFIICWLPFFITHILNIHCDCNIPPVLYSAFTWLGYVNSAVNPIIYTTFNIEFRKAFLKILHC
# Chain of serotonin 5HT1D receptor (P28221 whole entry): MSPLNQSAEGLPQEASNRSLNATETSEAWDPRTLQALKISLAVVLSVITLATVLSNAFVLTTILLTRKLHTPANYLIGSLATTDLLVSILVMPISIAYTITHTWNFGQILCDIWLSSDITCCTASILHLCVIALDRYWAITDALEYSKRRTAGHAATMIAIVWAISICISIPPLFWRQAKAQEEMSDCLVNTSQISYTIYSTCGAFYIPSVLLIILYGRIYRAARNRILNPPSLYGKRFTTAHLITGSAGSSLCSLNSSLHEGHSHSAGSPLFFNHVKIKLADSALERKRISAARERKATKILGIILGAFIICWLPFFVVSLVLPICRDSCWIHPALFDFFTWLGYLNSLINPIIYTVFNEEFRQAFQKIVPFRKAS
# Chain of dopamine D1 (P21728 whole entry): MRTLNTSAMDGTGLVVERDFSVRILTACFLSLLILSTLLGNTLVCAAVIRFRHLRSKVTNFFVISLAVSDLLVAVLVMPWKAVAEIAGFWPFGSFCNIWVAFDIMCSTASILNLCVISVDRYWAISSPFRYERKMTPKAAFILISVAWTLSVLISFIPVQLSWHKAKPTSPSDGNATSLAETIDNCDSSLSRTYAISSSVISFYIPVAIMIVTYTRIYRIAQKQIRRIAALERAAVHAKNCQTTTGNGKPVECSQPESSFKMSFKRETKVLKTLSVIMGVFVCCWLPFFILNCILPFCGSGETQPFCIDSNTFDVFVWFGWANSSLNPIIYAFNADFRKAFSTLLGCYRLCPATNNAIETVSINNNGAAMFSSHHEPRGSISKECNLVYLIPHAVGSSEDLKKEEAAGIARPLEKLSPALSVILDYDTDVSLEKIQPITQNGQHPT
smiles,measurement,setting,value
Cc1nc2n(c(=O)c1CCN1CCC(c3noc4cc(F)ccc34)CC1)CCCC2 [Risperidone],affinity for serotonin 5HT1A receptor,[1],low to moderate affinity
same,affinity for α1 adrenergic receptor,[2],high affinity
same,affinity for β2 adrenergic receptor,[3],no affinity
same,affinity for serotonin 5HT1C receptor,[4],low to moderate affinity
same,affinity for haloperidol-sensitive sigma site,[5],weak affinity
same,affinity for dopamine D1,[6],weak affinity
same,affinity for α2 adrenergic receptor,[7],high affinity
same,affinity for serotonin 5HT1D receptor,[8],low to moderate affinity
same,affinity for dopamine Type 2 (D2) receptor,[9],high affinity
same,affinity for β1 adrenergic receptor,[10],no affinity
